Reference: ChEMBL document CHEMBL1201862, “PubChem BioAssay data set” (2004)
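Assay format: 96-well plates, 48-hour exposure. GI50: concentration for 50% inhibition of growth.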 Active and inactive are the calls of the source. No stated cut-off is given here; in the data, active = GI50 up to about 1.1 µM and inactive = higher.

Legend:
Test in all cases: growth of human tumour cells (NCI), 48 h
TK-10 = system: TK-10
UACC-257 = system: UACC-257
EKVX = system: EKVX
SK-MEL-28 = system: SK-MEL-28
IGROV-1 = system: IGROV-1
786-0 = system: 786-0
KM12 = system: KM12
HOP-62 = system: HOP-62
UACC-62 = system: UACC-62
COLO 205 = system: COLO 205
RXF 393 = system: RXF 393
M19-MEL = system: M19-MEL
SW-620 = system: SW-620
RPMI-8226 = system: RPMI-8226
DMS-114 = system: DMS-114
DMS-273 = system: DMS-273
LOX IMVI = system: LOX IMVI
K562 = system: K562
HCT-116 = system: HCT-116
OVCAR-3 = system: OVCAR-3
CCRF-CEM = system: CCRF-CEM
XF498 = system: XF498
HCT-15 = system: HCT-15
DLD-1 = system: DLD-1
SN12C = system: SN12C
SF-295 = system: SF-295
HT-29 = system: HT-29
SNB-75 = system: SNB-75
U-251 = system: U-251
SF-268 = system: SF-268
NCI-H460 = system: NCI-H460
KM-20L2 = system: KM-20L2
HOP-18 = system: HOP-18
NCI-H23 = system: NCI-H23
HOP-92 = system: HOP-92
SK-MEL-5 = system: SK-MEL-5
SNB-78 = system: SNB-78
OVCAR-5 = system: OVCAR-5
UO-31 = system: UO-31
ACHN = system: ACHN
SNB-19 = system: SNB-19
A498 = system: A498
OVCAR-8 = system: OVCAR-8
LXFL 529 = system: LXFL 529
SK-OV-3 = system: SK-OV-3
M14 = system: M14
SR = system: SR
HCC 2998 = system: HCC 2998
SF-539 = system: SF-539
OVCAR-4 = system: OVCAR-4
A549 = system: A549
MOLT-4 = system: MOLT-4
HL-60 = system: HL-60
Malme-3M = system: Malme-3M
NCI-H522 = system: NCI-H522
NCI-H226 = system: NCI-H226
SK-MEL-2 = system: SK-MEL-2
CAKI-1 = system: CAKI-1

Cc1ccccc1C(=O)Oc1ccc(OCc2ccccc2)cc1
GI50 (TK-10): > 100 µM (inactive) | GI50 (UACC-257): 95.7 µM (inactive) | GI50 (EKVX): > 100 µM (inactive) | GI50 (SK-MEL-28): > 100 µM (inactive) | GI50 (IGROV-1): > 100 µM (inactive) | GI50 (786-0): 51.2 µM (inactive) | GI50 (KM12): > 100 µM (inactive) | GI50 (HOP-62): > 100 µM (inactive) | GI50 (UACC-62): 83.8 µM (inactive) | GI50 (COLO 205): > 100 µM (inactive) | GI50 (RXF 393): 39.1 µM (inactive) | GI50 (M19-MEL): > 100 µM (inactive) | GI50 (SW-620): > 100 µM (inactive) | GI50 (RPMI-8226): 25.6 µM (inactive) | GI50 (DMS-114): 28.9 µM (inactive) | GI50 (DMS-273): > 100 µM (inactive) | GI50 (LOX IMVI): 99.1 µM (inactive) | GI50 (K562): 47.6 µM (inactive) | GI50 (HCT-116): 53.5 µM (inactive) | GI50 (OVCAR-3): > 100 µM (inactive) | GI50 (CCRF-CEM): 22.2 µM (inactive) | GI50 (XF498): > 100 µM (inactive) | GI50 (HCT-15): 38.6 µM | GI50 (DLD-1): > 100 µM (inactive) | GI50 (SN12C): 93.8 µM (inactive) | GI50 (SF-295): > 100 µM (inactive) | GI50 (HT-29): 63.8 µM (inactive) | GI50 (SNB-75): > 100 µM (inactive) | GI50 (U-251): > 100 µM (inactive) | GI50 (SF-268): > 100 µM (inactive) | GI50 (NCI-H460): 39.1 µM (inactive) | GI50 (KM-20L2): 75.5 µM (inactive) | GI50 (HOP-18): > 100 µM (inactive) | GI50 (NCI-H23): 66.8 µM (inactive) | GI50 (HOP-92): > 100 µM (inactive) | GI50 (SK-MEL-5): 48.6 µM (inactive) | GI50 (SNB-78): > 100 µM (inactive) | GI50 (OVCAR-5): 45.3 µM (inactive) | GI50 (UO-31): 37.2 µM (inactive) | GI50 (ACHN): 9.18 µM (inactive) | GI50 (SNB-19): > 100 µM (inactive) | GI50 (A498): 34.5 µM (inactive) | GI50 (OVCAR-8): > 100 µM (inactive) | GI50 (LXFL 529): 87.9 µM (inactive) | GI50 (SK-OV-3): > 100 µM (inactive) | GI50 (M14): > 100 µM (inactive) | GI50 (SR): 19.1 µM (inactive) | GI50 (HCC 2998): 35.9 µM (inactive) | GI50 (SF-539): > 100 µM (inactive) | GI50 (OVCAR-4): > 100 µM (inactive) | GI50 (A549): 35.2 µM (inactive) | GI50 (MOLT-4): 9.44 µM (inactive) | GI50 (HL-60): 5.82 µM (inactive) | GI50 (Malme-3M): > 100 µM (inactive)

CNC(=O)OCc1cc2ccncc2c2c1[nH]c1ccccc12
GI50 (NCI-H522): 20.7 µM (inactive) | GI50 (TK-10): > 100 µM (inactive) | GI50 (UACC-257): > 100 µM (inactive) | GI50 (EKVX): > 100 µM (inactive) | GI50 (SK-MEL-28): > 100 µM (inactive) | GI50 (IGROV-1): > 26.9 µM (inactive) | GI50 (786-0): 26.7 µM (inactive) | GI50 (KM12): 5.09 µM (inactive) | GI50 (HOP-62): 10 µM (inactive) | GI50 (UACC-62): > 100 µM (inactive) | GI50 (COLO 205): > 28.3 µM (inactive) | GI50 (RXF 393): 2.55 µM (inactive) | GI50 (M19-MEL): > 100 µM (inactive) | GI50 (SW-620): 6.01 µM (inactive) | GI50 (RPMI-8226): > 88.3 µM (inactive) | GI50 (DMS-114): > 100 µM (inactive) | GI50 (DMS-273): > 100 µM (inactive) | GI50 (LOX IMVI): > 22.1 µM (inactive) | GI50 (K562): 17.9 µM (inactive) | GI50 (HCT-116): 5.16 µM (inactive) | GI50 (OVCAR-3): > 100 µM (inactive) | GI50 (CCRF-CEM): 7.4 µM (inactive) | GI50 (NCI-H226): > 100 µM (inactive) | GI50 (XF498): > 45.1 µM (inactive) | GI50 (HCT-15): > 23.8 µM | GI50 (SK-MEL-2): > 100 µM (inactive) | GI50 (DLD-1): 5.89 µM (inactive) | GI50 (SN12C): > 100 µM (inactive) | GI50 (SF-295): > 100 µM (inactive) | GI50 (HT-29): > 25.5 µM (inactive) | GI50 (SNB-75): > 40.4 µM (inactive) | GI50 (U-251): > 39.7 µM (inactive) | GI50 (NCI-H460): > 20.7 µM (inactive) | GI50 (KM-20L2): > 100 µM (inactive) | GI50 (HOP-18): > 100 µM (inactive) | GI50 (NCI-H23): > 100 µM (inactive) | GI50 (HOP-92): > 100 µM (inactive) | GI50 (SK-MEL-5): > 100 µM (inactive) | GI50 (SNB-78): > 72.6 µM (inactive) | GI50 (OVCAR-5): > 77.6 µM (inactive) | GI50 (UO-31): > 100 µM (inactive) | GI50 (ACHN): 5.47 µM (inactive) | GI50 (SNB-19): > 53.7 µM (inactive) | GI50 (CAKI-1): 3.21 µM (inactive) | GI50 (OVCAR-8): 11.5 µM (inactive) | GI50 (LXFL 529): > 39.6 µM (inactive) | GI50 (M14): > 100 µM (inactive) | GI50 (SR): 2.12 µM (inactive) | GI50 (HCC 2998): > 58.5 µM (inactive) | GI50 (SF-539): > 42.6 µM (inactive) | GI50 (OVCAR-4): > 100 µM (inactive) | GI50 (A549): > 27.4 µM (inactive) | GI50 (MOLT-4): 4.05 µM (inactive) | GI50 (HL-60): 19.1 µM (inactive) | GI50 (Malme-3M): > 100 µM (inactive)
